One experiment relates to AP1. The experiment is described as follows: ELISA-based transbinding AP1 assay in MCF-7 cells. Format: cell-based. To be noted: 5.5 mM sugar, 24 h. The protocol: FIG. 12 depicts an increase in AP1 activation in fructose-treated cells in accordance with an embodiment of the present invention. MCF-7 breast cancer cells were incubated in 2 mM glucose, or 5 mM glucose or fructose for 24 h, after which nuclear extracts were incubated with a biotinylated AP-1 probe in binding buffer. AP-1/AP1 probe complexes were next conjugated to a streptavidin-coated assay plate and detected using an AP-1 specific antibody, followed by binding of a horseradish-peroxidase conjugated secondary antibody, and detection by a colorimetric reagent. *, p<0.001.
Although several signal transduction pathways are likely involved in the fructose-mediated enhanced breast cancer growth and while not wishing to be bound by any particular theory, the inventors believe that the MAP-kinase pathway is involved. The inventors have used Western blot analysis to examine the MAPK pathway in breast cancer cells incubated in 2 mM glucose, 5.5 mM glucose, and 5.5 mM fructose for 48 hours. […] Activation of MEK, and subsequently ERK results in phosphorylation of p90^Rsk, which leads to transcriptional activation of CREB and AP1, which bind to cAMP or AP1 response elements respectively, activating gene transcription and promoting cellular growth.
Background: In an ELISA, binding on a coated surface is turned into a signal by an enzyme label.

Experiment [1] concerns AP-1. The experiment is described as follows: AP-1 probe binding assay on nuclear extracts of PANC-1 cells. To be noted: 5.5 mM fructose, 48 h. Format: cell-based. The procedure: (§1) FIG. 24 depicts luciferase activity of PANC-1 cells and primary culture of surgically resected pancreatic tumor cells in accordance with an embodiment of the present invention. PANC-1 pancreatic cancer cells and a primary culture of a surgically resected pancreatic tumor were incubated in 2 mM glucose, 5.5 mM glucose or 5.5 mM fructose for 48 h, after which nuclear extracts were incubated with a biotinylated AP-1 probe, and detected by an antibody-linked colorimetric method. *, p<0.01
(§2) In separate experiments PANC-1 cells, and primary cultures of surgically resected pancreatic tumors were incubated in 2 mM glucose, or 5.5 mM glucose or 5.5 mM fructose for 48 h, after which nuclear extracts were incubated with a biotinylated AP-1 probe in binding buffer. AP-1/AP1 probe complexes were next conjugated to a streptavidin-coated assay plate and detected using an AP-1 specific antibody, followed by binding of a horseradish-peroxidase conjugated secondary antibody, and detection by a colorimetric reagent.

The subject of experiment [2] is AP-1. The experiment is described as follows: AP-1 probe binding assay on nuclear extracts of a primary culture of a pancreatic tumor. To be noted: 5.5 mM sugar, 48 h. In kind it is cell-based, human. The procedure:
as §1, §2

A further experiment concerns transketolase (TKK). The experiment is described as follows: Transketolase activity in PANC-1 lysates (NADH oxidation). In kind it is cell-based. The note with it: 5.5 mM fructose, 72 h. The protocol: FIG. 34 depicts quantitation of transketolase activity in pancreatic cancer PANC-1 cells following incubation in 2 mM glucose, 5.5 mM glucose, and 5.5 mM fructose for 24 h, 48 h, and 72 h respectively, in accordance with an embodiment of the present invention.
The inventors believe that fructose-treatment of pancreatic cancer cells led to an increase in TKK-driven nucleic acid synthesis, and thus fructose-treatment would result in an increase in either PANC-1 TKK expression and/or activity in comparison to equivalent glucose concentrations. Western blot analysis on protein lysates derived from fructose-, and glucose-treated PANC-1 cells were performed (5.5 mM fructose, and glucose for 24, and 48 h as per previous protocol) using a specific TKK antibody, and compared TKK expression in the fructose-, and glucose-treated PANC-1 cells. As depicted in FIG. 33, TKK expression at 24 h, and 48 h in protein lysates derived from 5.5 mM glucose-treated PANC-1 cells was increased in comparison to expression in 2 mM glucose-treated cells. […] After gentle mixing the absorbance of the mixture was measured at 10 min intervals for 2 h at 340 nm. Transketolase activity was then derived from the difference in absorbance at 10, and 80 minutes, and expressed as nmol/min/million cells. […] Pancreatic cancer proliferation rates were then measured using the MTS assay (FIG. 35).

The test system of the next experiment is normal pancreas tissue. The experiment is described as follows: Substrate oxidation with 13C tracers in primary culture of normal pancreas. In kind it is cell-based, human. To be noted: 5.5 mM, 72 h. The procedure:
FIG. 31 depicts substrate oxidation in accordance with an embodiment of the present invention. Substrate oxidation in a primary culture of a normal pancreas (left), and a pancreatic cancer (right) following incubation in 2 mM, or 5 mM glucose, or 5 mM fructose for 72 h.
In separate studies, the inventors treated primary cultures of 4 pancreatic adenocarcinomas, and 3 normal pancreas tissues with the [1,2-^13C2]D-glucose-, or -fructose-tracers as before for 72 h, and carried out metabolic studies.

One molecule from patent US8241607B2, “Use of fructose-based compounds for the diagnosis of cancer” (priority 2005, dated 2012) can be followed below.

SMILES strings stand for the structures.

`O=C(CO)[C@@H](O)[C@H](O)[C@H](O)CO` [fructose]: in the experiment on AP1, the “increase in AP1 activation” value is 3 fold. Further, the “AP-1 luciferase reporter activity higher than in 5.5 mM glucose” value with AP-1 [1] is “approximately 40%”. Also, the “increase in AP-1 activation compared to 2 mM glucose” value in the experiment with AP-1 [2] stood at 2.1 fold. The “TKK activity in comparison to 5.5 mM glucose-treated cells” value in the experiment on transketolase (TKK) is listed as 1.7 fold higher. For the same molecule, in the experiment with normal pancreas tissue, the “substrate oxidation to CO2” value was “effectively oxidizes”.
